Assay results: PMC9322761, “Design, Synthesis and Biological Characterization of Histone Deacetylase 8 (HDAC8) Proteolysis Targeting Chimeras (PROTACs) with Anti-Neuroblastoma Activity” (International Journal of Molecular Sciences, 2022)

Experiments:
SK-N-BE(2)-C cells = experiment: Colony formation assay in neuroblastoma cells; assay type: cell-based, human; details: 5 and 10 μM, treatment 96 h, then 6 days without treatment
HDAC8 [1] = biological target: T1, HDAC8 (Homo sapiens, UniProt Q9BY41); experiment: In vitro HDAC8 activity assay (Fluor de Lys-HDAC8); assay type: biochemical; set-up: made in house; details: for IC50: Table 1, PROTACs
T1 sequence (Q9BY41 1-377): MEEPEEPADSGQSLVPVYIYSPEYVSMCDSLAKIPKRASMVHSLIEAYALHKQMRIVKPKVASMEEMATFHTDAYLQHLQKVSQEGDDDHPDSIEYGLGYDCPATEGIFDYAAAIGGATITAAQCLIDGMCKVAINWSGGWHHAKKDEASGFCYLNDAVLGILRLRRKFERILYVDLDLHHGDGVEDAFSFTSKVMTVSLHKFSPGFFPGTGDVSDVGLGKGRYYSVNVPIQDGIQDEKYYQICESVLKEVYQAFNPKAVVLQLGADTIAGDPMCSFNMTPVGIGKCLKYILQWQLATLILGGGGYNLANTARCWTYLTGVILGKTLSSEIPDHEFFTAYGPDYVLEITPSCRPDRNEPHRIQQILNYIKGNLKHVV
Protocol: Recombinant hHDAC8 was produced by Romier et al. in Strasbourg. The HDAC8 activity assays were performed according to the commercial HDAC8 Fluorometric Drug Discovery Kit (Fluor de Lys(R)-HDAC8, BML-KI178) corresponding to the instructions of the manufacturer. As substrate a tetrapeptide connected to aminomethylcoumarin (AMC) H2N-Arg- His-Lys(Ac)-Lys(Ac)-AMC was synthesized as previously described. The enzyme was incubated for 90 min at 37 °C, with a substrate concentration of 50 µM and increasing concentrations of inhibitors. The stop-solution-containing inhibitor was added to stop the hHDAC8 activity, and Trypsin was added to release the AMC. The solution was incubated for 20 min at 37 °C to develop the assay.
Inhibition was measured at increasing concentration and IC50 was calculated by nonlinear regression with Origin 9.0G software.

HDAC8 [2] = biological target: T1, HDAC8; experiment: HDAC8 degradation in SK-N-BE(2)-C neuroblastoma cells (Western blot); assay type: cell-based; set-up: endogenous in cells; host or cells: SK-N-BE(2)-C; details: SK-N-BE(2)-C cells; for HDAC8 degradation: up to 10 µM, Western blot
Protocol: Whole cell lysates from treated SK-N-BE(2)-C neuroblastoma cells were taken and the protein levels for HDAC8 and the acetylation of its substrate SMC3 were determined (Figure 6). As a control for HDAC6, we also assessed acetylation levels of α-tubulin. […] Western blot analysis was performed as described previously (Kolbinger et al.).
Figure 6 (A) SK-N-BE(2)-C neuroblastoma cells were treated for indicated time points with 10 µM of PROTACs. Degradation of HDAC8 and acetylation of HDAC8 target was analyzed via Western blot. (B) SK-N-BE(2)-C neuroblastoma cells were treated for 6 h with indicated concentrations of HyT_1p, CRBN_1b and HyT_1m. Acetylation of HDAC8 target SMC3 and HDAC6 target tubulin, as well as total HDAC8 levels, were assessed by Western blot. Quantified ac-SMC3 or ac-tubulin expression, respectively, was normalized to the respective tubulin loading control and to the solvent control (DMSO). This quantification is reflected by the numbers below each blot. […] Total HDAC6, total HDAC1, total HDAC8, and acetyl-histone H4 expression levels, were assessed by Western blot. Total GAPDH protein levels served as a loading control (LC). * unspecific bands obtained through reprobing of the membrane.

SMILES	Effect on colony formation (SK-N-BE(2)-C cells)	HDAC8 inhibitory activity (HDAC8 [1]; negative control)	HDAC8 degradation (HDAC8 [2])	IC50 (HDAC8 [1]) [nM]	SI (HDAC6/HDAC8) (HDAC8 [1]; selectivity index, HDAC6 over HDAC8)	Remaining HDAC8 protein (HDAC8 [2]; 6 h, 10 µM) [%]
COC(=O)c1ccc(C)c(NCc2ccc(OCc3cn(CCCCCC(=O)Nc4cccc5c4C(=O)N(C4CCC(=O)NC4=O)C5=O)nn3)cc2)c1 (centres unmarked) [33a]	inactive	did not demonstrate a strong inhibitory activity	did not show hyperacetylation of SMC3 or HDAC8 degradation			
COc1ccc(C(=O)NO)cc1NC(=O)c1ccc(NC(=O)CCCCCCCNc2cccc3c2C(=O)N(C2CCC(=O)NC2=O)C3=O)cc1 (centres unmarked) [CRBN_1b]	significantly decreased the ability to form colonies		strong HDAC8 degradation	810 ± 170	0.7	40
O=C(COc1ccc(CNc2cc(C(=O)NO)ccc2Cl)cc1)NCCCCCNC(=O)CC12CC3CC(CC(C3)C1)C2 [HyT_1p]	significantly decreased the ability to form colonies		failed to degrade HDAC8	750 ± 90		
